The source of these data is patent publication US8048924B2, “Methods and compositions employing 4-aminophenylacetic acid compounds” (Biocon Limited, priority 2001, dated 2011).

A short description of data set [1]: Metabolism of APAZA and sulfasalazine following oral delivery to rats (urine and feces, HPLC). The note with it: rat. How it is done:
The degradation of the APAZA™ therapeutic agent (5-(4-carboxymethyl-phenylazo)-2-hydroxy-benzoic acid), and sulfasalazine (used as a control) and the generation of their metabolites when these compounds were orally dosed to rats were measured to be able to confirm that both the APAZA™ therapeutic agent and sulfasalazine undergo bacterial azo reduction and yield their metabolites, 5-aniinosalicylic acid (5-ASA) and sulfapyridine for sulfasalazine, 5-aminosalicylic acid (5-ASA) and 4-aminophenyl acetic acid (4-APAA) for the APAZA™ therapeutic agent.
This experiment was performed to confirm that an azo compound, the APAZA™ therapeutic agent, undergoes a bacterial reduction process and yields its metabolites in in-vivo metabolism. The quantification of its metabolites was also carried out. Sulfasalazine, not part of the present invention, was used as a control since similar azo bond cleavage by bacteria occurs with it, which results in 5-aminosalicylic acid and sulfapyridine as its metabolites. Both the APAZA™ therapeutic agent and sulfasalzine were degraded and their metabolites were produced as expected.
A total of 8 rats were used for the experiment and methylcellulose was used as a vehicle. The dosage amount was 100 mg/kg per rat. […] Both urine and feces were collected over 4 days and analyzed by HPLC. […]

The subject of data set [2] is DNBS colitis. Put plainly: Study AA-PH-003: oral and rectal APAZA and sulfasalazine in DNBS colitis. In kind it is in vivo, male Lewis rats. Set-up: Average Diarrhea Score Day 3: scale not given here. The note with it: for Colonic Inflammation Scores: scale 0-2. As to the method:
Study AA-PH-003 was designed to evaluate the anti-inflammatory efficacy of oral and rectal doses of APAZATM and sulfasalazine in the DNBS colitis model in rats. […] Thirty-five adult male Lewis rats (body weight 200-250 g) were studied. […] Animal body weights and incidence of diarrhea were recorded daily. […] Animals in the DNBS groups and the parallel deionized water group were sacrificed on day 5. Laparotomies and colectomies were performed and animals were scored for the presence and severity of intestinal adhesions, strictures, inflammation, and ulceration. Colon: body weight ratios were determined and colon histopathology was performed.

A short description of data set [3]: Single oral dose pharmacokinetics of APAZA in dogs. In kind it is in vivo, Beagle dogs. The note with it: for AUC(0-t) / Cmax / Tmax: Beagle, dog, plasma, single oral dose 1000 mg/kg; for AUC(0-t): read-out: area under the plasma concentration-time curve (AUC0-t); for Cmax: read-out: mean maximum plasma concentration (Cmax); for Tmax: read-out: time to maximum plasma concentration (tmax).

Setting [4] is: orally + 30 mg DNBS, APAZA 200 mg/kg, sulfasalazine 265.6 mg/kg.
Setting [5] is: rectally + 30 mg DNBS, APAZA 200 mg/kg, sulfasalazine 265.6 mg/kg.

Where two headings read alike, the source gives them in different places.

On to `Nc1ccc(O)c(C(=O)O)c1` [5-ASA, 5-amino-2-hydroxy-benzoic acid, reference compound], for which the “conversion of 5-ASA in vivo” value in data set [1] was “quickly converted to acetylated 5-ASA”.
Consider `O=C(O)Cc1ccc(/N=N/c2ccc(O)c(C(=O)O)c2)cc1` [APAZA™, 5-(4-carboxymethyl-phenylazo)-2-hydroxy-benzoic acid], for which, in data set [2] (compared to tissues from placebo and sulfasalazine treated animals), the “severity of mucosal ulcers” value is on record as “less severe”. For the same compound, the “reduction relative to control in net colon: body weight (% BW) ratio” value in data set [2] (oral groups) was found to be 23.8%. Moreover, in data set [2] (setting [4]), the “Average Diarrhea Score Day 3” value is 2, the “Colon Histopathology (# severe lesions)” value is listed as 2, the “Length of Colonic Inflammation (cm)” value is 2.5 cm and the “Mean Body Weight” value is 213.8 g. Moreover, in data set [2] (setting [4]), the “Mean Colon Length (cm)” value is given as 12.3 cm, the “Net Colon: Body Weight Ratio” value amounted to 0.2309 and the “Colonic Inflammation Scores” value came to 1.4. Moreover, in data set [2] (setting [5]), the “Average Diarrhea Score Day 3” value was 2, the “Length of Colonic Inflammation (cm)” value came to 1.6 cm, the “Mean Body Weight” value worked out at 218.6 g and the “Mean Colon Length (cm)” value was determined as 12.4 cm. In data set [2] (setting [5]), the “Net Colon: Body Weight Ratio” value was determined as 0.1983 and the “Colonic Inflammation Scores” value worked out at 1.3. In addition, in data set [3] (female dogs), the AUC(0-t) came out at 40800 ng·h/mL, the Cmax turned out to be 2640 ng/mL and the Tmax amounted to 24 h. Also, in data set [3] (male dogs), the AUC(0-t) came out at 95400 ng·h/mL, the Cmax came to 9780 ng/mL and the Tmax stood at 15 h. In addition, in data set [3] (single oral dose, 100 to 1000 mg/kg), the “plasma levels versus dose” value was “increased in a dose-related manner”.
